Source: patent US4296112A, “Cephalosporins” (Mitsui Toatsu Chemicals, Inc., priority 1979, dated 1981)
Where two headings read alike, the source gives them in different places.

Columns and labels:
[1] = test system: Shigella flexneri (K-A); test: MIC, agar plate dilution (Referential Example 1, Table 1); assay type: cell-based; conditions: HIA medium plate, 37° C., 18 hours, read-out: Minimum growth inhibitory concentration (MIC)
Method: (§1) The antibacterial activities of the cephalosporins of this invention were measured using the sodium salts of the compounds obtained in Synthesis Examples 1 and 2. The procedure and the results are shown in Referential Example 1.
(§2) Carbenicillin sodium salt (CB-PC) and cephazoline sodum salt (CEZ) were used as controls.
(§3) The antibacterial activities of the test compounds against various Gram-positive and Gram-negative bacteria were determined in a customary manner by the minimum growth inhibitory concentration method (MIC method).
(§4) The experimental procedure was as follows:
(§5) A commercially available heart infusion agar medium (to be abbreviated HIA medium) was used as an assay medium, and a commercially available trypto-soy bouillon medium (to be abbreviated TSB) was used as a medium for the growth of test bacterial strains.
(§6) The test compound was diluted with the melted HIA medium to 100 μg/ml as a maximum concentration, and then serially diluted double. The dilutions were poured into sterilized Petri dishes respectively and allowed to cool and solidify to prepare plates containing the test compound.
(§7) The test bacterial strain was cultivated at 37° C. for 18 to 24 hours in the TSB medium. The culture broth was diluted to 50 to 500 times with a freshly prepared TSB culture medium, and one platinum loopful of the dilution was inoculated in each of the plates containing the test compound.

[2] = test system: Staphylococcus aureus (FDA 209P); test: as above; assay type: cell-based; conditions: FDA209P, read-out: Minimum growth inhibitory concentration (MIC)
Method: as §1, §2, §3, §4, §5, §6, §7

[3] = test system: Enterobacter aerogenes (IFO 3320); test: as above; assay type: cell-based; conditions: Klebsiella aerogenes, read-out: Minimum growth inhibitory concentration (MIC)
Method: as §1, §2, §3, §4, §5, §6, §7

[4] = test system: Escherichia coli (14H114); test: as above; assay type: cell-based; conditions: HIA medium plate, 37° C., 18 hours, read-out: Minimum growth inhibitory concentration (MIC)
Method: as §1, §2, §3, §4, §5, §6, §7

[5] = test system: Salmonella enteritidis (KB-21); test: as above; assay type: cell-based; conditions: Salmonella enterica, 18 h, read-out: Minimum growth inhibitory concentration (MIC)
Method: as §1, §2, §3, §4, §5, §6, §7

[6] = test system: Pseudomonas aeruginosa (NCTC 7244); test: as above; assay type: cell-based; conditions: NCTC7244, HIA medium plate, 37° C., 18 hours, read-out: Minimum growth inhibitory concentration (MIC)
Method: as §1, §2, §3, §4, §5, §6, §7

[7] = test system: Serratia marcescens (S-33); test: as above; assay type: cell-based; conditions: HIA medium plate, 37° C., 18 hours, read-out: Minimum growth inhibitory concentration (MIC)
Method: as §1, §2, §3, §4, §5, §6, §7

[8] = test system: Pseudomonas maltophilia (F-6257); test: as above; assay type: cell-based; conditions: Stenotrophomonas maltophilia; HIA medium plate, 37° C., 18 hours; read-out: Minimum growth inhibitory concentration (MIC)
Method: as §1, §2, §3, §4, §5, §6, §7

[9] = test system: Citrobacter freundii (F-34); test: as above; assay type: cell-based; conditions: HIA medium plate, 37° C., 18 hours, read-out: Minimum growth inhibitory concentration (MIC)
Method: as §1, §2, §3, §4, §5, §6, §7

[10] = test system: Klebsiella pneumoniae (Horino); test: as above; assay type: cell-based; conditions: HIA medium plate, 37° C., 18 hours, read-out: Minimum growth inhibitory concentration (MIC)
Method: as §1, §2, §3, §4, §5, §6, §7

[11] = test system: Enterobacter cloacae (D-49); test: as above; assay type: cell-based; conditions: HIA medium plate, 37° C., 18 hours, read-out: Minimum growth inhibitory concentration (MIC)
Method: as §1, §2, §3, §4, §5, §6, §7

[12] = test system: Pseudomonas aeruginosa (395); test: as above; assay type: cell-based; conditions: HIA medium plate, 37° C., 18 hours, read-out: Minimum growth inhibitory concentration (MIC)
Method: as §1, §2, §3, §4, §5, §6, §7

[13] = test system: Proteus rettgeri (T-2); test: as above; assay type: cell-based; conditions: Providencia rettgeri; HIA medium plate, 37° C., 18 hours; read-out: Minimum growth inhibitory concentration (MIC)
Method: as §1, §2, §3, §4, §5, §6, §7

[14] = test system: Bacillus cereus (IAM 1792); test: as above; assay type: cell-based; conditions: IAM1792, HIA medium plate, 37° C., 18 hours, read-out: Minimum growth inhibitory concentration (MIC)
Method: as §1, §2, §3, §4, §5, §6, §7

[15] = test system: Streptococcus faecalis (Hoshi); test: as above; assay type: cell-based; conditions: Enterococcus faecalis; HIA medium plate, 37° C., 18 hours; read-out: Minimum growth inhibitory concentration (MIC)
Method: as §1, §2, §3, §4, §5, §6, §7

[16] = test system: Pseudomonas aeruginosa (F1629); test: as above; assay type: cell-based; conditions: HIA medium plate, 37° C., 18 hours, read-out: Minimum growth inhibitory concentration (MIC)
Method: as §1, §2, §3, §4, §5, §6, §7

[17] = test system: Pseudomonas aeruginosa (IFO-3901); test: as above; assay type: cell-based; conditions: IFO3901, HIA medium plate, 37° C., 18 hours, read-out: Minimum growth inhibitory concentration (MIC)
Method: as §1, §2, §3, §4, §5, §6, §7

[18] = test system: Escherichia coli (NIHJ); test: as above; assay type: cell-based; conditions: HIA medium plate, 37° C., 18 hours, read-out: Minimum growth inhibitory concentration (MIC)
Method: as §1, §2, §3, §4, §5, §6, §7

[19] = test system: Staphylococcus aureus (Y-8); test: as above; assay type: cell-based; conditions: HIA medium plate, 37° C., 18 hours, read-out: Minimum growth inhibitory concentration (MIC)
Method: as §1, §2, §3, §4, §5, §6, §7

[20] = test system: Pseudomonas aeruginosa (ATCC 10145); test: as above; assay type: cell-based; conditions: ATCC10145, HIA medium plate, 37° C., 18 hours, read-out: Minimum growth inhibitory concentration (MIC)
Method: as §1, §2, §3, §4, §5, §6, §7

[21] = test system: Klebsiella pneumonia (F-5089); test: as above; assay type: cell-based; conditions: Klebsiella pneumoniae; HIA medium plate, 37° C., 18 hours; read-out: Minimum growth inhibitory concentration (MIC)
Method: as §1, §2, §3, §4, §5, §6, §7

[22] = test system: Klebsiella pneumoniae (B-172); test: as above; assay type: cell-based; conditions: HIA medium plate, 37° C., 18 hours, read-out: Minimum growth inhibitory concentration (MIC)
Method: as §1, §2, §3, §4, §5, §6, §7

[23] = test system: Pseudomonas aeruginosa (718); test: as above; assay type: cell-based; conditions: HIA medium plate, 37° C., 18 hours, read-out: Minimum growth inhibitory concentration (MIC)
Method: as §1, §2, §3, §4, §5, §6, §7

[24] = test system: Proteus vulgaris (OX-19); test: as above; assay type: cell-based; conditions: read-out: Minimum growth inhibitory concentration (MIC)
Method: as §1, §2, §3, §4, §5, §6, §7

[25] = test system: Escherichia coli (K-12); test: as above; assay type: cell-based; conditions: HIA medium plate, 37° C., 18 hours, read-out: Minimum growth inhibitory concentration (MIC)
Method: as §1, §2, §3, §4, §5, §6, §7

[26] = test system: Klebsiella pneumoniae (ATCC 10031); test: as above; assay type: cell-based; conditions: read-out: Minimum growth inhibitory concentration (MIC)
Method: as §1, §2, §3, §4, §5, §6, §7

[27] = test system: Escherichia coli (26RO3); test: as above; assay type: cell-based; conditions: HIA medium plate, 37° C., 18 hours, read-out: Minimum growth inhibitory concentration (MIC)
Method: as §1, §2, §3, §4, §5, §6, §7

[28] = test system: Pseudomonas aeruginosa (S-1); test: as above; assay type: cell-based; conditions: HIA medium plate, 37° C., 18 hours, read-out: Minimum growth inhibitory concentration (MIC)
Method: as §1, §2, §3, §4, §5, §6, §7

[29] = test system: Proteus morganii (C-39); test: as above; assay type: cell-based; conditions: Morganella morganii; HIA medium plate, 37° C., 18 hours; read-out: Minimum growth inhibitory concentration (MIC)
Method: as §1, §2, §3, §4, §5, §6, §7

[30] = test system: Pseudomonas aeruginosa; conditions: background art, in words; cited from earlier work
[31] = test system: Pseudomonas aeruginosa (NCTC 7244); test: MIC in HIB medium by turbidity (Referential Example 2, Table 2); assay type: cell-based; conditions: NCTC7244, 18 h, 37° C.
Method: (§8) The compounds obtained in Synthesis Examples 1 to 4 were tested in the following manner.
(§9) A suspension of Pseudomonas aeruginosa (NCTC 7244) cultivated at 37° C. for 18 hours in a heart infusion broth medium (HIB medium) in a final amount of 10^5, 10^6 and 10^7 cells/ml in an HIB medium containing each of the test compounds which was obtained in the same way as in Referential Example 1 except that the maximum concentration of the test compound was 200 μg/ml. The bacterial strain was cultivated at 37° C. for 18 hours, and the turbidity of the culture broth was evaluated with the naked eye. The minimum concentration of the test compound at which no turbidity was noted was defined as MIC.

[32] = test system: Gram-positive or Gram-negative bacteria; conditions: background art, in words; cited from earlier work
[33] = test system: Pseudomonas aeruginosa (NCTC 7244); test: Minimum bactericidal concentration (Referential Example 2, Table 2); assay type: cell-based; conditions: NCTC7244, 18 h, subculture on HIA medium
Method: as §8, §9
The growth of the bacterial strain was evaluated.

[34] = HIA medium plate, 37° C., 18 hours

Compound	MIC [1]	MIC [4]	MIC [5]	MIC [6]	MIC [7]	MIC [8]	MIC [9]	MIC [10]	MIC [11]	MIC [12]	MIC [13]	MIC [14]	MIC [15]	MIC [16]	MIC [17]	MIC [18]	MIC [19]	MIC [20]	MIC [21]	MIC [22]	also measured
Cc1nnc(SCC2=C(C(=O)O)N3C(=O)[C@@H](NC(=O)Cn4cnnn4)[C@H]3SC2)s1 [CEZ, sodium 7-[1-(1H)-tetrazoylacetamido]-3-[2-(5-methyl-1,3,4thiadiazoyl)-thiomethyl]-Δ^3-cephem-4-carboxylate]	1.56 µg/mL	6.25 µg/mL	1.56 µg/mL	> 100 µg/mL	> 100 µg/mL	> 100 µg/mL	50 µg/mL	3.13 µg/mL	> 100 µg/mL	> 100 µg/mL	12.5 µg/mL	100 µg/mL	25 µg/mL	> 100 µg/mL	> 100 µg/mL	3.13 µg/mL	0.78 µg/mL	> 100 µg/mL	3.13 µg/mL	3.13 µg/mL	MIC [2, 34]: 0.2 µg/mL; MIC ([3]; IFO3320, HIA medium plate, 37° C., 18 hours): 3.13 µg/mL; MIC [23]: > 100 µg/mL; MIC ([24]; 18 h): 1.56 µg/mL; MIC [25]: 3.13 µg/mL; MIC ([26]; ATCC10031, 18 h): 1.56 µg/mL; MIC [27]: 50 µg/mL; MIC [28]: > 100 µg/mL; MIC [29]: > 100 µg/mL; effectiveness for infections caused by Pseudomonas aeruginosa [30]: ineffective for infections caused by Pseudomonas aeruginosa; MIC ([31]; 10^5 cells/ml inoculated): > 200 µg/mL; MIC ([31]; 10^6 cells/ml inoculated): > 200 µg/mL; MIC ([31]; 10^7 cells/ml inoculated): > 200 µg/mL; effectiveness for infections caused by Gram-positive or Gram-negative bacteria [32]: effective as therapeutic agents for infections caused by Gram-positive or Gram-negative bacteria; MBC ([33]; 10^5 cells/ml inoculated): > 200 µg/mL; MBC ([33]; 10^6 cells/ml inoculated): > 200 µg/mL; MBC ([33]; 10^7 cells/ml inoculated): > 200 µg/mL
CC1(C)S[C@@H]2[C@H](NC(=O)C(C(=O)O)c3ccccc3)C(=O)N2[C@H]1C(=O)O (stereo partly drawn) [CB-PC, disodium-α-carboxybenzyl penicillin]	1.56 µg/mL	> 100 µg/mL	1.56 µg/mL	100 µg/mL	6.25 µg/mL	25 µg/mL	3.13 µg/mL	100 µg/mL	> 100 µg/mL	25 µg/mL	3.13 µg/mL	100 µg/mL	50 µg/mL	> 100 µg/mL	100 µg/mL	6.25 µg/mL	12.5 µg/mL	> 100 µg/mL	50 µg/mL	25 µg/mL	MIC ([2]; 18 h): 1.56 µg/mL; MIC ([3]; IFO3320, 18 h): 1.56 µg/mL; MIC [23]: > 100 µg/mL; MIC [24, 34]: 6.25 µg/mL; MIC [25]: 6.25 µg/mL; MIC ([26]; ATCC10031, HIA medium plate, 37° C., 18 hours): > 100 µg/mL; MIC [27]: 3.13 µg/mL; MIC [28]: 25 µg/mL; MIC [29]: 6.25 µg/mL; activity on Pseudomonas aeruginosa [30]: low activity on Pseudomonas aeruginosa; effectiveness for infections caused by Pseudomonas aeruginosa [30]: ineffective for Pseudomonas aeruginosa-induced infections of difficultly curable nature; MIC ([31]; 10^5 cells/ml inoculated): 50 µg/mL; MIC ([31]; 10^6 cells/ml inoculated): 100 µg/mL; MIC ([31]; 10^7 cells/ml inoculated): 200 µg/mL; MBC ([33]; 10^5 cells/ml inoculated): 100 µg/mL; MBC ([33]; 10^6 cells/ml inoculated): 100 µg/mL; MBC ([33]; 10^7 cells/ml inoculated): > 200 µg/mL
